From US11510983B2 (priority 2013, dated 2022)

Key:
[1] = tested on: A/California/7/2009 (H1N1); design: species or system BALB/c mice; settings: mouse, in vivo
[2] = tested on: A/California/7/2009 (H1N1); design: species or system BALB/c mice; settings: mouse, in vivo; remark: listed apart in the source
[3] = pig, in vivo
[4] = design: species or system mice; settings: mouse, in vivo

Row | Compound | time after which HAI titer started to decline to levels of non-adjuvanted flu vaccine [1] [months] | elevation of IgG2a production [2] [fold] | type of immune response by IgG2a/IgG1 ratio [2] | skin response at the injection site [3] | raise of specific antibody titers in the presence vs. absence of laser pre-treatment [4] [folds]
1 | CC(C)Cn1cnc2c(N)nc3ccccc3c21 [IMIQ, 1-(2-Methylpropyl)-1H-imidazo[4,5-c]quinolin-4-amine] | > 3 | 5 | Th1-biased immune response | Diminished skin irritation | –
2 | OVA: protein model antigen ovalbumin | – | – | – | – | 6
